In patent publication US9149038B2, “4-amino-6-(heterocyclic)picolinates and 6-amino-2-(heterocyclic)pyrimidine-4-carboxylates and their use as herbicides” (Dow AgroSciences LLC, priority 2013, dated 2015):
Where two headings read alike, the source gives them in different places.

Legend:
[1] = tested on: Key Broadleaf Weed and Crop Species; assay: Post-Emergent Test II: postemergent herbicidal activity, visual rating after 14 d (Table 7); format: in vivo; conditions: post-emergence, 336 h; for pest or weed control at 35 g/ha: 35 g ai/ha; for pest or weed control at 70 g/ha: 70 g ai/ha; for pest or weed control at 140 g/ha: 140 g ai/ha
How it was run: (§1)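 Plants were raised in a greenhouse for 7-21 d and treated once at the first or second true leaf stage. Compounds, dissolved in 97:3 acetone:DMSO then diluted into an aqueous acetone/isopropanol/crop oil/Triton X-155 carrier, were applied by overhead track sprayer at 187 L/ha. After 14 d with subirrigation, injury was scored visually from 0 (none) to 100 (complete kill).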

[2] = tested on: Key Grass and Sedge Weeds as well as Grass Crops; assay: Post-Emergent Test II: postemergent herbicidal activity, visual rating after 14 d (Table 8); format: in vivo; conditions: post-emergence, 336 h; for pest or weed control at 35 g/ha: 35 g ai/ha; for pest or weed control at 70 g/ha: 70 g ai/ha; for pest or weed control at 140 g/ha: 140 g ai/ha
How it was run: as §1

[3] = lambsquarters (Chenopodium album), read-out: Visual Growth Reduction (%) 14 Days After Application CHEAL
[4] = oilseed rape, canola (Brassica napus), read-out: Visual Growth Reduction (%) 14 Days After Application BRSNN
[5] = redroot pigweed (Amaranthus retroflexus), read-out: Visual Growth Reduction (%) 14 Days After Application AMARE
[6] = sunflower (Helianthus annuus), read-out: Visual Growth Reduction (%) 14 Days After Application HELAN
[7] = velvetleaf (Abutilon theophrasti), read-out: Visual Growth Reduction (%) 14 Days After Application ABUTH
[8] = wild poinsettia (Euphorbia heterophylla), read-out: Visual Growth Reduction (%) 14 Days After Application EPHHL
[9] = barnyardgrass (Echinochloa crus-galli), read-out: Visual Growth Reduction (%) 14 Days After Application ECHCG
[10] = giant foxtail (Setaria faberi), read-out: Visual Growth Reduction (%) 14 Days After Application SETFA
[11] = maize, corn (Zea mays), read-out: Visual Growth Reduction (%) 14 Days After Application ZEAMX
[12] = rice (Oryza sativa), read-out: Visual Growth Reduction (%) 14 Days After Application ORYSA
[13] = wheat, spring (Triticum aestivum), read-out: Visual Growth Reduction (%) 14 Days After Application TRZAS
[14] = yellow nutsedge (Cyperus esculentus), read-out: Visual Growth Reduction (%) 14 Days After Application CYPES

COC(=O)c1nc(-c2ccc3c(c2)OC(F)(F)O3)c(F)c(N)c1OC [Compound 24]
pest or weed control at 35 g/ha [1, 3]: 0 to 29%
pest or weed control at 70 g/ha [1, 3]: 0 to 29%
pest or weed control at 140 g/ha [1, 3]: 0 to 29%
pest or weed control at 35 g/ha [1, 4]: 0 to 29%
pest or weed control at 70 g/ha [1, 4]: 0 to 29%
pest or weed control at 140 g/ha [1, 4]: 0 to 29%
pest or weed control at 35 g/ha [1, 5]: 0 to 29%
pest or weed control at 70 g/ha [1, 5]: 0 to 29%
pest or weed control at 140 g/ha [1, 5]: 0 to 29%
pest or weed control at 35 g/ha [1, 6]: 0 to 29%
pest or weed control at 70 g/ha [1, 6]: 0 to 29%
pest or weed control at 140 g/ha [1, 6]: 0 to 29%
pest or weed control at 35 g/ha [1, 7]: 0 to 29%
pest or weed control at 70 g/ha [1, 7]: 0 to 29%
pest or weed control at 140 g/ha [1, 7]: 0 to 29%
pest or weed control at 35 g/ha [1, 8]: 75 to 84%
pest or weed control at 70 g/ha [1, 8]: 95 to 100%
pest or weed control at 140 g/ha [1, 8]: 95 to 100%
pest or weed control at 35 g/ha [2, 9]: 60 to 74%
pest or weed control at 70 g/ha [2, 9]: 85 to 94%
pest or weed control at 140 g/ha [2, 9]: 95 to 100%
pest or weed control at 35 g/ha [2, 10]: 0 to 29%
pest or weed control at 70 g/ha [2, 10]: 0 to 29%
pest or weed control at 140 g/ha [2, 10]: 0 to 29%
pest or weed control at 35 g/ha [2, 11]: 60 to 74%
pest or weed control at 70 g/ha [2, 11]: 75 to 84%
pest or weed control at 140 g/ha [2, 11]: 75 to 84%
pest or weed control at 35 g/ha [2, 12]: 0 to 29%
pest or weed control at 70 g/ha [2, 12]: 0 to 29%
pest or weed control at 140 g/ha [2, 12]: 0 to 29%
pest or weed control at 35 g/ha [2, 13]: 0 to 29%
pest or weed control at 70 g/ha [2, 13]: 0 to 29%
pest or weed control at 140 g/ha [2, 13]: 30 to 44%
pest or weed control at 35 g/ha [2, 14]: 95 to 100%
pest or weed control at 70 g/ha [2, 14]: 95 to 100%
pest or weed control at 140 g/ha [2, 14]: 95 to 100%

Nc1cc(-c2cc(F)c3c(c2)OC(F)(F)O3)nc(C(=O)O)c1Cl [Compound 44]
pest or weed control at 35 g/ha [1, 3]: 0 to 29%
pest or weed control at 70 g/ha [1, 3]: 0 to 29%
pest or weed control at 140 g/ha [1, 3]: 0 to 29%
pest or weed control at 35 g/ha [1, 4]: 0 to 29%
pest or weed control at 70 g/ha [1, 4]: 0 to 29%
pest or weed control at 140 g/ha [1, 4]: 0 to 29%
pest or weed control at 35 g/ha [1, 5]: 0 to 29%
pest or weed control at 70 g/ha [1, 5]: 0 to 29%
pest or weed control at 140 g/ha [1, 5]: 0 to 29%
pest or weed control at 35 g/ha [1, 6]: 0 to 29%
pest or weed control at 70 g/ha [1, 6]: 0 to 29%
pest or weed control at 140 g/ha [1, 6]: 0 to 29%
pest or weed control at 35 g/ha [1, 7]: 0 to 29%
pest or weed control at 70 g/ha [1, 7]: 0 to 29%
pest or weed control at 140 g/ha [1, 7]: 0 to 29%
pest or weed control at 35 g/ha [1, 8]: 0 to 29%
pest or weed control at 70 g/ha [1, 8]: 0 to 29%
pest or weed control at 140 g/ha [1, 8]: 0 to 29%
pest or weed control at 35 g/ha [2, 9]: 60 to 74%
pest or weed control at 70 g/ha [2, 9]: 60 to 74%
pest or weed control at 140 g/ha [2, 9]: 75 to 84%
pest or weed control at 35 g/ha [2, 10]: 0 to 29%
pest or weed control at 70 g/ha [2, 10]: 0 to 29%
pest or weed control at 140 g/ha [2, 10]: 0 to 29%
pest or weed control at 35 g/ha [2, 11]: 0 to 29%
pest or weed control at 70 g/ha [2, 11]: 0 to 29%
pest or weed control at 140 g/ha [2, 11]: 0 to 29%
pest or weed control at 35 g/ha [2, 12]: 0 to 29%
pest or weed control at 70 g/ha [2, 12]: 0 to 29%
pest or weed control at 140 g/ha [2, 12]: 0 to 29%
pest or weed control at 35 g/ha [2, 13]: 0 to 29%
pest or weed control at 70 g/ha [2, 13]: 0 to 29%
pest or weed control at 140 g/ha [2, 13]: 0 to 29%
pest or weed control at 35 g/ha [2, 14]: 0 to 29%
pest or weed control at 70 g/ha [2, 14]: 0 to 29%
pest or weed control at 140 g/ha [2, 14]: 0 to 29%
